Source: ChEMBL document CHEMBL1148786, “L-(+)-2-Amino-4-thiophosphonobutyric acid (L-thioAP4), a new potent agonist of group III metabotropic glutamate receptors: increased distal acidity affords enhanced potency” (J Med Chem, 2007)
Calls of active or inactive are those of the source. The rule behind the calls is not given here.

Tests used:
[1] = molecular target: Metabotropic glutamate receptor 4 (Rattus norvegicus, UniProt P31423); assay: Agonist activity at rat mGluR4 receptor expressed HEK293 cells assessed as effect on inositol phosphate production; type: functional, cell-based
[2] = molecular target: Metabotropic glutamate receptor 6 (Rattus norvegicus, UniProt P35349); assay: Agonist activity at rat mGluR6 receptor expressed HEK293 cells assessed as effect on inositol phosphate production; type: functional, cell-based
[3] = molecular target: Metabotropic glutamate receptor 7 (Rattus norvegicus, UniProt P35400); assay: Agonist activity at rat mGluR7 receptor expressed HEK293 cells assessed as effect on inositol phosphate production; type: functional, cell-based
[4] = molecular target: Metabotropic glutamate receptor 8 (Rattus norvegicus, UniProt P70579); assay: Agonist activity at rat mGluR8 receptor expressed HEK293 cells assessed as effect on inositol phosphate production; type: functional, cell-based
[5] = molecular target: Metabotropic glutamate receptor 1 (Homo sapiens) (UniProt Q13255); assay: Activity at mGluR1 receptor at 100 uM
[6] = molecular target: Metabotropic glutamate receptor 5 (Homo sapiens) (UniProt P41594); assay: Activity at mGluR5 receptor at 100 uM
[7] = molecular target: Metabotropic glutamate receptor 2 (Homo sapiens) (UniProt Q14416); assay: Activity at mGluR2 receptor at 100 uM
[8] = molecular target: Metabotropic glutamate receptor 3 (Homo sapiens) (UniProt Q14832); assay: Activity at mGluR3 receptor at 100 uM
Metabotropic glutamate receptor 3 (Homo sapiens), sequence (Q14832 23-879 limits assumed): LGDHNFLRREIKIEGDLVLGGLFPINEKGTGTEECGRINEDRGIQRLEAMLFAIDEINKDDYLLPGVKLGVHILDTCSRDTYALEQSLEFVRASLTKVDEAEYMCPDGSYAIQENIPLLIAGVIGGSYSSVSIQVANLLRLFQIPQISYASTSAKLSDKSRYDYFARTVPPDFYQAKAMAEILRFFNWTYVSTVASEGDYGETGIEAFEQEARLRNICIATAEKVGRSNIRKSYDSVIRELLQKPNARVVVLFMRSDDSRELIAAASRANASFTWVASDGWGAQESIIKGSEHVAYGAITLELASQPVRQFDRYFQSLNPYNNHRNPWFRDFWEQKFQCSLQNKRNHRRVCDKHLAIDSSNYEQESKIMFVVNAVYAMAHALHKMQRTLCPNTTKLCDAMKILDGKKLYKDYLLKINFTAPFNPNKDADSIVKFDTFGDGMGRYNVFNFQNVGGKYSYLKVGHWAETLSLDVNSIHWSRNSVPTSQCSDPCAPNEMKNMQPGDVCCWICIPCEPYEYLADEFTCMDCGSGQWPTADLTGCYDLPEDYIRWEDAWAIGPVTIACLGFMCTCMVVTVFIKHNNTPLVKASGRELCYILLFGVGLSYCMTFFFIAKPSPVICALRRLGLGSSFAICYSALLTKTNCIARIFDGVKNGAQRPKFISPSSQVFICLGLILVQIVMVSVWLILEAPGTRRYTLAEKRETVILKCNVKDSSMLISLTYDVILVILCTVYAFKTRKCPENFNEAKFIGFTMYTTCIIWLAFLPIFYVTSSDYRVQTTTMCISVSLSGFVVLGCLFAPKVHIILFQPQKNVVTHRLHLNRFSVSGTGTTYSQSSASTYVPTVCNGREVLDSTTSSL

Metabotropic glutamate receptor 2 (Homo sapiens), sequence (Q14416 19-872 limits assumed): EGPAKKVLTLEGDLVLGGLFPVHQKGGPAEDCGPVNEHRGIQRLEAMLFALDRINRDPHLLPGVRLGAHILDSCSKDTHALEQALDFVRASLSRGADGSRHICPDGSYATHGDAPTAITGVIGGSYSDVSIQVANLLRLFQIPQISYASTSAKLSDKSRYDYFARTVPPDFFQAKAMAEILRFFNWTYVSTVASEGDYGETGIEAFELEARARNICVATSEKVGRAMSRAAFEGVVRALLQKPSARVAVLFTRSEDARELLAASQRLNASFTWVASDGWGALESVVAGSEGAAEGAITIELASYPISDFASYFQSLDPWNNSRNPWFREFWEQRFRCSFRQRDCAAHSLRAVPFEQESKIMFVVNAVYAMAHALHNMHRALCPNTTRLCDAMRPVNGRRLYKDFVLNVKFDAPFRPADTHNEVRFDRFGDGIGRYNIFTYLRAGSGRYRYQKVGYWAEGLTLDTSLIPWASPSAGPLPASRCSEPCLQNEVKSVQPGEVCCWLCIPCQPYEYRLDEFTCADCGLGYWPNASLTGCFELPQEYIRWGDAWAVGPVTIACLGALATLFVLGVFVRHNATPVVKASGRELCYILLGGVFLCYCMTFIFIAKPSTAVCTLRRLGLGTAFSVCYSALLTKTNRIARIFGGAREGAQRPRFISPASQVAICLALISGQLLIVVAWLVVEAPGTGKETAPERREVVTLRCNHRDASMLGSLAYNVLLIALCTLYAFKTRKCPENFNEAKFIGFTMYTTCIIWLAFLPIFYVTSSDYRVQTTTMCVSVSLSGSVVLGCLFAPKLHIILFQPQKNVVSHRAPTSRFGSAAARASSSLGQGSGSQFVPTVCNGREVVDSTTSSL
Metabotropic glutamate receptor 5 (Homo sapiens), sequence (P41594 21-1212 limits assumed): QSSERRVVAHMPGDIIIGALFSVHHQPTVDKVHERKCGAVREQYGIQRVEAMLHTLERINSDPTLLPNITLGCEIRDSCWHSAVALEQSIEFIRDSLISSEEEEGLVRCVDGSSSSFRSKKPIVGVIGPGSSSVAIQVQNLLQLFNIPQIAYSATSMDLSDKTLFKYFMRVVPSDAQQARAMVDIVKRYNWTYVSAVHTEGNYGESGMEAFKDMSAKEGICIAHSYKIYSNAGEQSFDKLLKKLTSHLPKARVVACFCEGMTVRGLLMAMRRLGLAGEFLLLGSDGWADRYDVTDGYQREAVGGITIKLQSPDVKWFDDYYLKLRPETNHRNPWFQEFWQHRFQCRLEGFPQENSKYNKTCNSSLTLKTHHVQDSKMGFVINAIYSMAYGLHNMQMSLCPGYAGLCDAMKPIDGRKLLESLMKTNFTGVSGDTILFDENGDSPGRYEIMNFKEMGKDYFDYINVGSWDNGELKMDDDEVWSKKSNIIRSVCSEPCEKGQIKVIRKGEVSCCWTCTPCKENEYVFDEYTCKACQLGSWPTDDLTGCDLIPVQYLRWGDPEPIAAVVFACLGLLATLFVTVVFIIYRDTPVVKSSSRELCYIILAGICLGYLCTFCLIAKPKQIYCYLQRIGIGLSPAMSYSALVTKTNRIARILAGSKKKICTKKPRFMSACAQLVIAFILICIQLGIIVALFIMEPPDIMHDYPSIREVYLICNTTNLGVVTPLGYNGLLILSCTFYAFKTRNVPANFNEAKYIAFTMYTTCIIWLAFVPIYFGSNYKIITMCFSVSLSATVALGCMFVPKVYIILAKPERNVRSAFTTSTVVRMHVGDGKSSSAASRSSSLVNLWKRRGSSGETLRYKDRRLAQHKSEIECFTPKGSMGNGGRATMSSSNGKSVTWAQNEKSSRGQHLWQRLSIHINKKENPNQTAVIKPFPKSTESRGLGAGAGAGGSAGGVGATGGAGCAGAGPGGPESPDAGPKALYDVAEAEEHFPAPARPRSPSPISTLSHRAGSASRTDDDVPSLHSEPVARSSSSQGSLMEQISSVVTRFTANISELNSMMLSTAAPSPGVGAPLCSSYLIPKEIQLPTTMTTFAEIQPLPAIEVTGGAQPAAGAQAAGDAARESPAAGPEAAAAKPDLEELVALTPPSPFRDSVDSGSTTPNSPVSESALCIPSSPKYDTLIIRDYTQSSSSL
Metabotropic glutamate receptor 1 (Homo sapiens), sequence (Q13255 19-1194 limits assumed): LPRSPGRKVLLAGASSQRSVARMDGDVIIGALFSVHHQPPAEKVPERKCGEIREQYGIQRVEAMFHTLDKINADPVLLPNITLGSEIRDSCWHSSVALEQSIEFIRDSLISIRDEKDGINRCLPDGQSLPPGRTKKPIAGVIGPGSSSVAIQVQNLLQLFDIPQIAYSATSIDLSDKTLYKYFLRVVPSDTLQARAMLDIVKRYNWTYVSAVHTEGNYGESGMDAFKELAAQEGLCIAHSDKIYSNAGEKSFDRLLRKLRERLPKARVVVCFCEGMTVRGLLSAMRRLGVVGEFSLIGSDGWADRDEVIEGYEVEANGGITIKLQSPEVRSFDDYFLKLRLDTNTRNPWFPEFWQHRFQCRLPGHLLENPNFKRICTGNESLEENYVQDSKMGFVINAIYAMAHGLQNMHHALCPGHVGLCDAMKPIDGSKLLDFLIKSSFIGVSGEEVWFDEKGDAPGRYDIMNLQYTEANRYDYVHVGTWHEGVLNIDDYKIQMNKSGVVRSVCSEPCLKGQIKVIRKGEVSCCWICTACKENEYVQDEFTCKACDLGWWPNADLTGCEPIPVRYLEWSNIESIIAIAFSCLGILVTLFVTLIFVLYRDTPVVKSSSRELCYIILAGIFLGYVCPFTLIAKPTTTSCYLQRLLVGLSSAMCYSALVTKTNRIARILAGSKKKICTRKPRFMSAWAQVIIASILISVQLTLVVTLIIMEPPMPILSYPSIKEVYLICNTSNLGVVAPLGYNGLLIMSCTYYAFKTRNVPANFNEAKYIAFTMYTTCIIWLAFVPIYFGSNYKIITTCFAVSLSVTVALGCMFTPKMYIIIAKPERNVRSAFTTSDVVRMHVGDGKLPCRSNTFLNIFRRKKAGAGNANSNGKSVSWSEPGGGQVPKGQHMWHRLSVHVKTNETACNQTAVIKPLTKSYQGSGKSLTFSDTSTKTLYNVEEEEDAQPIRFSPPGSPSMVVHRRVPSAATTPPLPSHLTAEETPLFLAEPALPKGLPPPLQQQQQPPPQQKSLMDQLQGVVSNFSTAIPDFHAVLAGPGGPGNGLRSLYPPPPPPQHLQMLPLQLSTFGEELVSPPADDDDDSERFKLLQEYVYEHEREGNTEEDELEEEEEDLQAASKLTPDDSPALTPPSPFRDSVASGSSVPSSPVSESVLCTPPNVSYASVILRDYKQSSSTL
Metabotropic glutamate receptor 6, sequence (P35349 whole entry): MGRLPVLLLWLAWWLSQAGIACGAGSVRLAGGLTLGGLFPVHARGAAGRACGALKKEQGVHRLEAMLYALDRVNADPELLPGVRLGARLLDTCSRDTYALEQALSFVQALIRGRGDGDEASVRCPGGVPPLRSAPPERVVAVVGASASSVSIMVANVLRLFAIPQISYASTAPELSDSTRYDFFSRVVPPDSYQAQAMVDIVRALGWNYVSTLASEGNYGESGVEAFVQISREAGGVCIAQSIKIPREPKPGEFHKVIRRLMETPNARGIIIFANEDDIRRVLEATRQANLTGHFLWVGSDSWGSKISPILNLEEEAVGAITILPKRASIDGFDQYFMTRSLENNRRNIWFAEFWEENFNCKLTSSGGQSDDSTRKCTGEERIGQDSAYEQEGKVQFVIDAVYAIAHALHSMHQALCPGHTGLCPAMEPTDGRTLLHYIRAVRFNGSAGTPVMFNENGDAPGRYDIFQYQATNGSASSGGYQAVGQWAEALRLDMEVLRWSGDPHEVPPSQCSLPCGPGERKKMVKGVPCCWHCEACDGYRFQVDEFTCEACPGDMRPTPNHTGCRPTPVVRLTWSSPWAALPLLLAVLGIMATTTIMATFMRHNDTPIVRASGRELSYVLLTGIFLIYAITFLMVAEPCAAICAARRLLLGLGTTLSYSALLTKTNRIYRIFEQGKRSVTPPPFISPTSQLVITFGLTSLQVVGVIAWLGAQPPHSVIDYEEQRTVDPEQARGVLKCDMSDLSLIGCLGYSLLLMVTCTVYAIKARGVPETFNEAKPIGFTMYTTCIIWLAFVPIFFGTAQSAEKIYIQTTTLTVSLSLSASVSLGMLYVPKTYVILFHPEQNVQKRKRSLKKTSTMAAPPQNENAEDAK

SMILES	EC50 [1] [µM]	EC50 [2] [µM]	EC50 [3] [µM]	EC50 [4] [µM]	Activity [5]	Activity [6]	Activity [7]	Activity [8]
N[C@@H](CC[PH](=O)O)C(=O)O	4.05	27.8	> 500	1.72	inactive	inactive	inactive	inactive
N[C@@H](CCP(=O)(O)O)C(=O)O					inactive	inactive	inactive	inactive
CP(=O)(O)CC[C@H](N)C(=O)O [PHOSPHINOTHRICIN]	1100	> 500	> 500	412	inactive	inactive	inactive	inactive
N[C@@H](CCP(O)(O)=S)C(=O)O					inactive	inactive	inactive	inactive
